{
  "source": "patent US20260001910A1",
  "about": "“PEPTIDES AND USES THEREOF” (PreveCeutical Medical Inc., priority 2021, published 2026)",
  "assay_type_in_all_cases": "cell-based, human",
  "key": {"MMP-2": {"tested_on": "MMP-2", "assay": "Gelatin zymography of conditioned media (metalloprotease production)", "settings": "for MMP-2 production: conditioned medium, compared to no-peptide control", "description": "(§1) To assess whether the peptide SEQ ID NO. 1 impacted MMP-2, MMP-9 and uPA production Zymography was used.\n(§2) Zymography is a technique for studying hydrolytic enzymes on the basis of substrate degradation (Vandooren, J. et al. 2013). The in-gel zymography hydrolytic enzymes are separated by their molecular weights and detected by their ability to degrade a substrate. To detect the activity of MMP-2 and MMP-9 in various cell lines, conditioned media were collected in 3 independent experiments and analysed by gelatin zymography to quantify the level of gelatin digestion, which reflects MMP-2 and MMP-9 activity and production. Cascin-Plasminogen zymography was conducted to determine the activity level of uPA in the conditioned medium from various cell lines. Active uPA converts plasminogen into plasmin which then digests casein, thus clear bands where digestion of casein have occurred indirectly represent uPA activity.\n(§3) The effect of the peptides on matrix protease production was tested using in-gel zymography. If the substrate included in the gel is gelatin, the enzymes detected are gelatinases: MMP-2 and MMP-9 (the latter is often of low abundance). If the gel contains casein and plasminogen, the enzymes tested are urokinase plasminogen activators (uPA); uPA is a therapeutic target in GBM.\n(§4) An equal amount of protein from each sample was mixed with 5 μL of Laemmli buffer (0.01% Bromophenol Blue (W/V), 5% SDS (W/V), 22% glycerol (V/V), 14% 0.5 M Tris pH 6.8 (V/V)) and loaded onto a 10% polyacrylamide gel co-polymerized with 1 mg/ml of gelatin, and electrophoresed at 120V for 2 hours on ice. The gel was incubated in […] solution (Triton X-100 2.5% (V/V), 1 M Tris pH 7.5 5% (V/V), 0.5 M CaCl2) 1% (W/V) at room temperature overnight on an orbital shaker. The gel was incubated in a second solution for 3 hours at 37° C. The gel was then stained with Coomassie blue solution (Coomassie blue 0.25%, methanol 45%, acetic acid 10%) and destained in methanol 25% (V/V), acetic acid 10% (V/V) destaining solution until clear bands against the dark background appeared around 72 kDa and 95 kDa, representing MMP-2 and MMP-9 activity, respectively. Clear bands around 50 kDa appeared against the dark background representing uPA activity. The gels were scanned, and uPA, MMP-2 and MMP-9 were quantified by densitometry using NIH Image J software.\n(§5) SEQ ID NO. 1 was compared to a control containing no peptide to evaluate whether the peptide can reduce the production of matrix proteinases. A reduction in the production of matrix proteinases may be anticipated to result in comparatively less degradation of the extra-cellular matrix and so this could be one pathway by which the invasion potential could be reduced."}, "MMP-9": {"tested_on": "MMP-9", "assay": "Gelatin zymography of conditioned media (metalloprotease production)", "settings": "conditioned medium, compared to no-peptide control", "description": "as §1, §2, §3, §4, §5"}, "CDH-2 (N-cadherin) mRNA": {"tested_on": "CDH-2 (N-cadherin) mRNA", "assay": "Real time RT-PCR mRNA expression (EMT marker)", "description": "(§6) The real-time reverse transcription polymerase chain reaction (RT-PCR) uses fluorescent reporter molecules to monitor the production of amplification products during each cycle of the PCR reaction. This combines the nucleic acid amplification and detection steps into one homogeneous assay and use of appropriate chemistries and data analysis eliminates the need for Southern blotting or DNA sequencing for amplicon identification. Its simplicity, specificity and sensitivity, together with its potential for high throughput and the ongoing introduction of new chemistries, more reliable instrumentation and improved protocols, has made real-time RT-PCR the benchmark technology for the detection and/or comparison of RNA levels.′\n(§7) In order to detect and quantify the expression of specific genes at mRNA level, real-time reverse transcriptase polymerase chain reaction (Real time RT-PCR) was performed. Total RNA of samples was isolated and purified using the PureLink® RNA Mini Kit (Life technologies). The concentration of total RNA was detected by NanoDrop 2000 Spectrophotometer (Thermo Scientific). The total RNA (2000 ng) was reverse transcribed using the High-Capacity cDNA Reverse Transcription Kit (Applied Biosystems™).\n(§8) The primers of target genes were TaqMan™ Gene Expression Assay for human PLAU (Hs01547054_m1), MMP-2 (Hs01548727_ml), MMP-9 (Hs00957562_m1), Snail-1 (Hs00195591_m1), Snail-2 (Hs00161904_m1), N-cadherin (Hs00983056_m1) and Twist (Hs01675818_s1). Relative quantification was done by reference to 18S ribosomal RNA (18S rRNA) and analysed using the comparative critical threshold (Ct) method\n(§9) The mRNA expression of MMPs was measured using qRT-PCR. This was tested three independent times; the results are shown in Tables 8, 9 and 10 for U251, U87 cells and 081024 cells respectively. Results are reported as percent of the control cells (no treatment). SEQ ID NO.\n(§10) Epithelial-mesenchymal transition (EMT) is the process by which epithelial cells acquire a migratory (metastatic) phenotype and so EMT is associated with cancer metastasis, cancer cell stemness, chemoresistance and immune resistance. Therefore, the determination of the mRNA expression of EMT markers is a valuable tool to evaluate invasion potential of cancer cells.\n(§11) The ‘Snail’ superfamily is involved in cell differentiation and survival, two processes central in cancer research. Snail-1 has a pivotal role in the regulation of epithelial-mesenchymal transition (EMT) and Snail-1 expression is associated with poor prognosis in metastatic cancer, and tumours with elevated Snail-1 expression are harder to treat. The significance of Snail-1 as a prognostic indicator, its involvement in the regulation of EMT and metastasis, and its roles in both drug and immune resistance point out that Snail-1 is an attractive target for tumour growth inhibition and a target for sensitization to cytotoxic drugs (Kaufhold et al., 2014). Twist is transcriptionally active during cell differentiation and lineage determination. During the establishment of cancer metastases by EMT, Twist acts independently of Snail to suppress E-cadherin and to upregulate N-cadherin (CDH-2) and fibronectin. Snail-2 (Slug) is another member of the SNAIL family of transcriptional activators and serves an important role in suppressing the epithelial phenotype in numerous cancer cells (Iwadate, 2016)."}, "Snail-1 mRNA": {"tested_on": "Snail-1 mRNA", "assay": "Real time RT-PCR mRNA expression (EMT marker)", "description": "as §6, §7, §8, §9, §10, §11"}, "Snail-2 mRNA": {"tested_on": "Snail-2 mRNA", "assay": "Real time RT-PCR mRNA expression (EMT marker)", "description": "as §6, §7, §8, §9, §10, §11"}, "Twist mRNA": {"tested_on": "Twist mRNA", "assay": "Real time RT-PCR mRNA expression (EMT marker)", "description": "as §6, §7, §8, §9, §10, §11"}, "[1]": {"settings": "081024 cells, baseline expression level = 1"}, "[2]": {"settings": "U87 cells, baseline expression level = 1"}, "[3]": {"settings": "U251 cells, relative to untreated control, 18S rRNA reference"}},
  "data": [
    {"smiles": "CC(C)C[C@@H](NC(=O)[C@@H](Cc1ccccc1)NC(=O)CNC(=O)CNC(=O)[C@H](N)Cc1ccc(O)cc1)C(=O)N[C@H](CCCNC(=N)N)C(=O)N[C@H](CCCNC(=N)N)C(N)=O", "note": "[SEQ ID NO. 1, tyr-Gly-Gly-phe-leu-arg-arg-NH2]", "values": [
      {"measurement": "MMP-2 production", "setting": "MMP-2; 081024 cells", "result": 100.50},
      {"measurement": "MMP-2 production", "setting": "MMP-2; U87 cells", "result": 91.11},
      {"measurement": "MMP-2 production", "setting": "MMP-2; U251 cells", "result": 97.13},
      {"measurement": "effect on production of MMP-2 (in words)", "setting": "MMP-2; overall, versus no-peptide control", "result": "did not decrease the production"},
      {"measurement": "MMP-9 production", "setting": "MMP-9; 081024 cells", "result": 101.4},
      {"measurement": "MMP-9 production", "setting": "MMP-9; U87 cells", "result": 67.83},
      {"measurement": "MMP-9 production", "setting": "MMP-9; U251 cells", "result": 65.41},
      {"measurement": "CDH-2 mRNA expression", "setting": "CDH-2 (N-cadherin) mRNA; [1]", "result": 0.72},
      {"measurement": "CDH-2 mRNA expression", "setting": "CDH-2 (N-cadherin) mRNA; [2]", "result": 0.83},
      {"measurement": "CDH-2 mRNA expression", "setting": "CDH-2 (N-cadherin) mRNA; [3]", "result": 0.88},
      {"measurement": "Snail-1 mRNA expression", "setting": "Snail-1 mRNA; [1]", "result": "halved the expression of Snail-1 mRNA with statistical significance"},
      {"measurement": "Snail-1 mRNA expression", "setting": "Snail-1 mRNA; 081024 cells, baseline expression level = 1, listed as SEQ ID NO.1", "result": 0.53},
      {"measurement": "Snail-1 mRNA expression", "setting": "Snail-1 mRNA; [2]", "result": 0.65},
      {"measurement": "Snail-1 mRNA expression", "setting": "Snail-1 mRNA; [3]", "result": 1.11},
      {"measurement": "Snail-2 mRNA expression", "setting": "Snail-2 mRNA; [1]", "result": 0.78},
      {"measurement": "Snail-2 mRNA expression", "setting": "Snail-2 mRNA; [2]", "result": 1.05},
      {"measurement": "Snail-2 mRNA expression", "setting": "Snail-2 mRNA; [3]", "result": 1.06},
      {"measurement": "Twist mRNA expression", "setting": "Twist mRNA; [1]", "result": 0.73},
      {"measurement": "Twist mRNA expression", "setting": "Twist mRNA; [2]", "result": 0.70},
      {"measurement": "Twist mRNA expression", "setting": "Twist mRNA; [3]", "result": 0.87}
    ]}
  ]
}
